Assay: gradient 5% acetonitrile 3 min, to 50% in 2 min, to 85% in 15 min, held 3 min, 100 µL/min
Conditions: column: Zorbax Extend-C18 2.1 x 50 mm; eluents: water / acetonitrile, 0.1% formic acid
How it was run: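 Retention time was recorded from adduct peaks, which were picked computationally and each inspected manually. Pure standards ran in mixtures of ~100 molecules on HPLC coupled to a quadrupole time-of-flight mass spectrometer, in positive and negative ionization mode, through a Zorbax Extend-C18 column (2.1 × 50 mm, 1.8 μm) at 100 μL/min. Eluents were water and acetonitrile, each with 0.1% formic acid.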

Row | SMILES | RP-LC retention time [s]
1 | CCN1CCN(C(=O)C2CCCN(c3nccc(C)n3)C2)CC1 (stereo unspecified) | 559
2 | Cc1noc(-c2nc(-c3ccc(OC(C)C)cc3)no2)n1 | 1120
3 | CNc1cc(C)nc2c(-c3ccc(Cl)cc3)cnn12 | 731
4 | COc1ccc(NC(=O)CC(C)=O)c(OC)c1 | 649
5 | CCn1cc(-c2nc(CC(=O)NCc3ccc(Cl)cc3)cs2)c2cccnc21 | 904
6 | CCOC(=O)Cc1csc(NC(=O)Cc2csc(Nc3nc(C)cc(C)n3)n2)n1 | 769
7 | CCc1nnc(-c2ccc3ccn(CC(=O)NCc4cc(OC)c(OC)c(OC)c4)c3c2)o1 | 760
8 | CCc1nc2cc(-c3noc(-c4cc(Cl)ccc4OC)n3)ccc2o1 | 1220
9 | CCCNC(=O)Cc1nnc(-c2ccc(C)cc2)o1 | 710
10 | O=C(NCc1cccnc1)N(c1ccccc1)c1ccccc1 | 578
11 | CS(=O)(=O)N1CCN(Cc2nnnn2-c2ccc(Cl)cc2)CC1 | 719
12 | CCC(CC)C(=O)Nc1nc(-c2ccc3c(c2)N(CC)C(=O)CO3)c(C)s1 | 1270
13 | CCc1nc2cc(-c3noc(-c4ccc(OC)nc4)n3)ccc2o1 | 1180
14 | Fc1cccc(Cl)c1CN1CC(c2nc(C3CC3)no2)C1 | 564
15 | CCc1cccc(C)c1Nc1c(-c2ccc(F)cc2)nc2nc(C)cc(C)n12 | 828
16 | CCOc1cc(C(=O)N2CCNC(=O)C2C)cc(OCC)c1OCC (stereo unspecified) | 638
17 | COC(=O)C(NC(=O)N1CC(Cn2c(C)cnc2C2CCOCC2)C1)C(C)C (stereo unspecified) | 600
18 | Cc1ccc(CCNC(=O)Cn2nc(-n3cccc3)c3c(C)cc(C)nc32)cc1 | 1070
19 | Cc1occc1C(=O)N1CCC2(CC1)CC(C)(O)CCO2 (stereo unspecified) | 645
20 | Cc1csc(-c2cc(S(=O)(=O)NCCCN3CCc4ccccc4C3)c(C)s2)n1 | 708
21 | CC(C)(CO)NC(=O)Cc1ccc(NS(=O)(=O)/C=C/c2ccccc2)cc1 | 686
22 | COc1ccc(S(=O)(=O)NCc2cccnc2-c2ccc(F)cc2)cc1 | 714
23 | CSc1ccc(N2C(C)=NS(=O)(=O)c3cccnc32)cc1 | 811
24 | CCNc1nc(NC(C)C)nc(-n2cnc(SC)n2)n1 | 897
25 | Cc1noc(C)c1Cc1c(C(=O)NCCn2c(C)cnc2C)noc1C | 601
26 | Cc1ccc(-c2nc(-c3ccc4nnn(C)c4c3)no2)cc1 | 968
27 | COc1ccccc1C(O)Cn1ccn2nc(-c3ccc(C)c(C)c3)cc2c1=O (stereo unspecified) | 982

Row | SMILES | RP-LC retention time [s]
28 | Cc1nn(-c2nc(CC(=O)N(CCO)Cc3ccccc3)cs2)c(C)c1Cl | 943
29 | Cc1cccc(NC(=O)Cn2ccc3ccc(-c4nnc(C)o4)cc32)c1 | 814
30 | COCCNC(=O)C1CCN(c2nccc(C)n2)CC1 | 561
31 | COC(=O)CCSCc1ccc(-c2onc(C)c2NC(=O)OC(C)c2ccccc2Cl)cc1 (stereo unspecified) | 1150
32 | Cc1noc(-c2ccc(OC3CN(C(=O)c4cccc5[nH]ccc45)C3)cc2)n1 | 597
33 | CN(C)CCNC(=O)c1ccnc(-c2ccsc2)c1 | 573
34 | Cc1nn(-c2ccc(C(=O)NC3CCCC3)cn2)c(C)c1C | 907
35 | Cc1cc(/C=C2\SC(=S)NC2=O)cc(C)c1O | 906
36 | O=C(NCc1cnoc1-c1ccc(F)cc1)c1c(F)cccc1F | 817
37 | O=C(c1csc(-c2ccc(N3CCCC3)nc2)n1)N1CCN(c2ccccn2)CC1 | 566
38 | CCCn1ccc2sc(C)c(C(=O)NC3CCCCC3)c2c1=O | 884
39 | CCN(CC)C(=O)c1ccc2c(c1)N(CC(=O)N1CCCCC1)C(=O)C1CCCCN21 (stereo unspecified) | 795
40 | CCn1nc(C)c(CCNC(=O)CCCn2c(=O)c3cccn3c3ccc(Br)cc32)c1C | 730
41 | CCCn1c(C)cnc1C1CN(S(=O)(=O)c2ccc(F)c(F)c2)C1 | 695
42 | CCSc1nnc(NC(=O)CSc2nnc(-c3ccco3)o2)s1 | 726
43 | O=C(c1ccc2ccnc(N3CCN(c4ccccc4)CC3)c2c1)N1CCN(C2CCCCC2)CC1 | 625
44 | COc1ccc(Cn2ccc3ccc(C(=O)NO)cc32)cc1 | 782
45 | Cc1ccc2ccc(C#N)cc2c1O | 892
46 | CCSc1nnc(NC(=O)CCCn2nc(-c3ccc(OC)cc3)ccc2=O)s1 | 730
47 | CN(CC1CCOC1)C(=O)Nc1cccc(Br)c1 (stereo unspecified) | 716
48 | COc1ccc(/C=C2\COc3ccc(C)cc3C2=O)cc1O | 1050
49 | CCC(C)NC(=O)Cn1c(=O)cc(-c2nc(C)no2)c2ccccc21 (stereo unspecified) | 755
50 | COc1cccc(/C=C/c2nccc3ccccc23)c1OC | 768
51 | Cc1ccc2nc(-c3cc(Br)ccc3F)c(Nc3ccc4c(c3)OCO4)n2c1 | 762
52 | COc1ccc(OC)c(S(=O)(=O)Cc2nc(-c3ccccc3C)no2)c1 | 990
53 | CCN1C(=O)COc2ccc(-c3csc(NC(=O)CC(C)C)n3)cc21 | 928

The remaining lines, values ahead:

Row | RP-LC retention time [s] | SMILES
54 | 838 | CCc1ccc(C2=C(C)C(N3CCCN(C(=O)c4ccco4)CC3)=NS2(=O)=O)cc1
55 | 753 | Cc1cc(C)cc(S(=O)(=O)N2CCC3(CC2)NCCN=C3NCc2ccc(F)cc2)c1
56 | 672 | CC1=C(C(=O)Nc2ccccc2F)C(c2ccccc2Br)NC(=O)N1 (stereo unspecified)
57 | 820 | CC(C)NC(=O)c1ccc(OCC2CCN(C(=O)c3ccccc3Cl)CC2)cc1
58 | 796 | Nc1sc(SCC(=O)NCc2ccc(F)cc2)nc1-c1ccccc1
59 | 971 | COCC(=O)N1CCc2c([nH]c3ccccc23)C1c1ccc(C)cc1 (stereo unspecified)
60 | 666 | Cn1c(=O)c(-c2noc(C(=O)N3CCN(c4ccccn4)CC3)n2)nn(-c2ccc(F)cc2)c1=O
61 | 943 | COc1ccc(Cl)cc1N1CC(c2nc(-c3ccccc3F)no2)CC1=O (stereo unspecified)
62 | 722 | Cc1ccn2cc(-c3ccc(NC(=O)CCC4CCCC4)cc3)nc2n1
63 | 657 | COc1ccc(C(=O)N2CCC3(C2)C(=O)Nc2ccccc23)cc1OC (stereo unspecified)
64 | 826 | O=C1CCCc2cc(S(=O)(=O)N3CCC(C(=O)Nc4cccc(Cl)c4)CC3)ccc2N1
65 | 1080 | CCCn1c(=O)sc2cc(S(=O)(=O)N3CCC(C(=O)N4c5ccccc5CC4C)CC3)ccc21 (stereo unspecified)
66 | 741 | CC(C)N1CCn2c(nc3cc(C(=O)NCc4ccc(Cl)cc4)ccc32)C1=O
67 | 858 | O=C(C1=CN(c2ccc(Cl)cc2)c2cc(F)ccc2S1(=O)=O)N1CCCC1
68 | 745 | O=C1NCCCCCCN(C(=O)c2cccs2)[C@H]2CCC[C@@H]12
69 | 612 | Cc1cc(C)n(-c2ccnc(N3CCC(C(=O)NCc4cccnc4)CC3)n2)n1
70 | 791 | CC(C)NC(=O)C1CCCN(c2nc3ncn(CC(=O)Nc4cccc(C(C)C)c4)c(=O)c3s2)C1 (stereo unspecified)
71 | 617 | O=C(Nc1ccc(S(=O)(=O)N2CCCCC2c2cccnc2)cc1)c1ccccc1F (stereo unspecified)
72 | 969 | CCc1nc(-c2cc(S(=O)(=O)N3CCC(C(=O)NCc4ccc(C)o4)CC3)c(C)s2)no1

Row | RP-LC retention time [s] | SMILES
73 | 731 | Cc1cc(C)cc(NC(=O)N2CCCC(Cn3c(C4CC4)nc4cccnc43)C2)c1 (stereo unspecified)
74 | 712 | O=C(Cc1cccs1)NC1CC(=O)N(Cc2ccccc2)C1 (stereo unspecified)
75 | 844 | Cc1ccc(NC(=O)C2CCCN(C(=O)C3Sc4ccccc4NC3=O)C2)cc1F (stereo unspecified)
76 | 949 | Cc1ccc(C(=O)N2CCC(c3nc(-c4ccccc4)no3)C2)s1 (stereo unspecified)
77 | 1160 | Cc1cc(NC(=O)c2c(O)c3cccnc3n(-c3ccccc3)c2=O)ccc1F
78 | 874 | O=C(CSc1ccc(F)cc1)Nc1ccc2c(c1)N(C(=O)c1ccccc1)CCC2
79 | 825 | O=C(c1[nH]c2ccccc2c1Sc1ccc(Cl)cc1)N1CCN(c2ccccn2)CC1
80 | 617 | Cc1c(C2CCN(C(=O)c3nccc4ccccc34)CC2)noc1N
81 | 1320 | Cc1ccc(C)c(N2CCN(C(=O)C3CCN(c4nccnc4Sc4ccccc4)CC3)CC2)c1
82 | 785 | COC(=O)N1CCc2ccc(Br)cc2C1C(=O)Nc1ccon1 (stereo unspecified)
83 | 635 | Cc1ccc2nc3sc(C(=O)Nc4c(C)n(C)n(-c5ccccc5)c4=O)cc3c(=O)n2c1
84 | 789 | Cc1ccccc1CNC(=O)c1ccc2c(c1)Sc1ncccc1C(=O)N2C
85 | 590 | CN1CCOc2ccc(NC(=O)C3CCN(S(C)(=O)=O)CC3)cc2C1=O
86 | 582 | CCOc1ccc(N2C(=O)Nc3ccccc3C2(O)C(=O)NCCCN2CCC(C)CC2)cc1 (stereo unspecified)
87 | 594 | CN1CCc2nnc(C3CCCN3C(=O)Nc3ccc(Cl)cc3C(F)(F)F)n2CC1 (stereo unspecified)
88 | 973 | CC1CCN(C(=O)C2c3ccccc3CCN2CC(=O)NCc2cccc(Cl)c2)CC1 (stereo unspecified)
89 | 597 | Cn1c(CN2CCN(C(=O)c3cccs3)CC2)nc2cc(C(=O)N3CCCC3)ccc21
90 | 805 | Cc1cc2nn(CC(=O)Nc3ccc(C)c(F)c3)c(=O)n2c(N2CCCC2)n1
91 | 588 | CCOc1ccc(NC(=O)N2CCC(N(C)C(C)C)CC2)cc1

From the METLIN SMRT retention time set (Domingo-Almenara et al. 2019)
